Read-outs that look alike come from different tables or passages of the source.
Columns and labels:
Experiment in all cases: Etest MIC of indicator carbapenems on MH II agar without/with PMBN
Type in all cases: cell-based
[1] = tested on: Enterobacter aerogenes EA 2 (porin+); settings: Klebsiella aerogenes
Description: (§1) The determinations of antibiotic MIC were carried out on solid culture media with the Etest® method. To do this, Etest® strips (bioMérieux, France) were used: • Etest® Imipenem IM 32, and • Etest® Ertapenem ETP 32, and also solid culture media, differing from one another by virtue of their non-inhibitory concentrations of PMBN.
(§2) These solid culture media are prepared in Petri dishes (0=145 mm; V=50 ml) on a base of MH II Agar (Becton Dickinson®, United States), more or less supplemented with PMBN. The PMBN concentrations range from 0 up to concentrations equivalent to one fifth of the MIC of PMBN (⅕ MICPMBN).
(§3) Using a swab and the Retro C80™ rota-plater (bioMérieux, France), the culture media were inoculated with the bacteria, originating from an inoculum of 0.5 McFarland, prepared in 0.85% NaCl solution from colonies subcultured the day before on MH II agar.
(§4) The various Etest® strips are then deposited on the surface of the culture media. After 16 to 20 hours of incubation at 35° C., the MICS were read.

[2] = tested on: Enterobacter aerogenes EA 15038 (porin+)
Description: as §1, §2, §3, §4

[3] = tested on: E. cloacae 1204052 (membrane impermeability)
How it was run: (§5)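 Etest imipenem/ertapenem/meropenem (IM 32, ETP 32, MP 32). Medium: MH II agar, PMBN 0 to ⅕ MIC. Inoculum: 0.5 McFarland, 0.85% NaCl, swabbed. Read: 16–20 h at 35° C.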

[4] = tested on: K. pneumoniae 1204039 (membrane impermeability)
How it was run: as §5

[5] = tested on: Enterobacter aerogenes EA 5 (porin−); settings: Klebsiella aerogenes
How it was run: as §5

[6] = tested on: K. pneumoniae 1108003 (KPC-3 producer)
How it was run: as §5

[7] = tested on: E. coli 1008078 (VIM producer)
How it was run: as §5

[8] = tested on: Enterobacter aerogenes EA 27 (porin−); settings: Klebsiella aerogenes
How it was run: as §5

[9] = tested on: E. aerogenes 1204050 (membrane impermeability); settings: in µg/mL
How it was run: as §5

[10] = tested on: K. pneumoniae 1012142 (KPC-2 producer)
How it was run: as §5

[11] = tested on: E. cloacae 1204153 (membrane impermeability); settings: in µg/mL
How it was run: as §5

[12] = tested on: E. cloacae 1204058 (membrane impermeability); settings: in µg/mL
How it was run: as §5

[13] = tested on: K. pneumoniae 1204035 (membrane impermeability); settings: in µg/mL
How it was run: as §5

[14] = tested on: E. cloacae 1204056 (membrane impermeability)
How it was run: as §5

[15] = tested on: E. cloacae 1204053 (membrane impermeability)
How it was run: as §5

E. coli SAB 108 (porin−) = settings: Escherichia coli
How it was run: as §5

[16] = tested on: E. cloacae 1204051 (membrane impermeability)
How it was run: as §5

E. coli SAB 100 (porin−) = settings: Escherichia coli
How it was run: as §5

[17] = tested on: K. pneumoniae 1103183 (NDM producer)
How it was run: as §5

C[C@@H](O)[C@H]1C(=O)N2C(C(=O)O)=C(S[C@@H]3CN[C@H](C(=O)Nc4cccc(C(=O)O)c4)C3)[C@H](C)[C@H]12 [ETP, ertapenem]
MIC [1]: 0.125 µg/mL
MIC ([1]; EA 2 (porin+), [PMBN] 0, read-out: MIC): 0.03 µg/mL
MIC ([1]; EA 2 (porin+), [PMBN] MIC/8, read-out: MIC): 0.25 µg/mL
MIC ([1]; EA 2 (porin+), [PMBN] MIC/10, read-out: MIC): 0.25 µg/mL
MIC ([2]; EA 15038 (porin+), [PMBN] MIC/8): 0.125 µg/mL
MIC ([2]; Klebsiella aerogenes): 0.125 µg/mL
MIC ([2]; Klebsiella aerogenes, EA 15038 (porin+), [PMBN] 0, read-out: MIC): 0.25 µg/mL
MIC ([2]; Klebsiella aerogenes, EA 15038 (porin+), [PMBN] MIC/5, read-out: MIC): 0.06 µg/mL
MIC ([3]; [PMBN] 0, Table 4a): > 32 µg/mL
MIC ([3]; [PMBN] 100, Table 4a): 12 µg/mL
MIC ([3]; [PMBN] 200, Table 4a): 8 µg/mL
MIC ([3]; [PMBN] 300, Table 4a): 3 µg/mL
MIC ([4]; [PMBN] 0, Table 4a): 2 µg/mL
MIC ([4]; [PMBN] 100, Table 4a): 1.5 µg/mL
MIC ([4]; [PMBN] 200, Table 4a): 1.5 µg/mL
MIC ([4]; [PMBN] 300, Table 4a): 1 µg/mL
MIC ([5]; E. aerogenes EA 5 (porin−), [PMBN] 0, Table 4): 6 µg/mL
MIC ([5]; E. aerogenes EA 5 (porin−), [PMBN] 50 μg/ml): 2 µg/mL
MIC ([5]; E. aerogenes EA 5 (porin−), [PMBN] 100 μg/ml): 2 µg/mL
MIC ([5]; E. aerogenes EA 5 (porin−), [PMBN] 150 μg/ml): 1.5 µg/mL
MIC ([5]; E. aerogenes EA 5 (porin−), [PMBN] 200 μg/ml): 1 µg/mL
MIC ([5]; EA 5 (porin−), [PMBN] 0, Table 2): 32 µg/mL
MIC ([5]; EA 5 (porin−), [PMBN] MIC/5): 4 µg/mL
MIC ([5]; EA 5 (porin−), [PMBN] MIC/8): 4 µg/mL
MIC ([5]; EA 5 (porin−), [PMBN] MIC/10): 4 µg/mL
MIC ([6]; [PMBN] 0, Table 4a): 8 µg/mL
MIC ([6]; [PMBN] 100, Table 4a): 24 µg/mL
MIC ([6]; [PMBN] 200, Table 4a): > 32 µg/mL
MIC ([6]; [PMBN] 300, Table 4a): > 32 µg/mL
MIC ([7]; [PMBN] 0, Table 4a): 2 µg/mL
MIC ([7]; [PMBN] 100, Table 4a): 0.75 µg/mL
MIC ([7]; [PMBN] 200, Table 4a): 0.5 µg/mL
MIC ([7]; [PMBN] 300, Table 4a): 0.38 µg/mL
MIC [8]: 0.125 µg/mL
MIC ([8]; E. aerogenes EA 27 (porin−), [PMBN] 0, Table 4, read-out: MIC): > 32 µg/mL
MIC ([8]; E. aerogenes EA 27 (porin−), [PMBN] 50 μg/ml, read-out: MIC): 4 µg/mL
MIC ([8]; E. aerogenes EA 27 (porin−), [PMBN] 100 μg/ml, read-out: MIC): 1.5 µg/mL
MIC ([8]; E. aerogenes EA 27 (porin−), [PMBN] 150 μg/ml, read-out: MIC): 0.75 µg/mL
MIC ([8]; E. aerogenes EA 27 (porin−), [PMBN] 200 μg/ml, read-out: MIC): 0.19 µg/mL
MIC ([8]; EA 27 (porin−), [PMBN] 0, Table 2, read-out: MIC): 64 µg/mL
MIC ([8]; EA 27 (porin−), [PMBN] MIC/8, read-out: MIC): 0.25 µg/mL
MIC ([8]; EA 27 (porin−), [PMBN] MIC/10, read-out: MIC): 16 µg/mL
MIC ([9]; [PMBN] 0, Table 4a): >32
MIC ([9]; [PMBN] 100, Table 4a): >32
MIC ([9]; [PMBN] 200, Table 4a): >32
MIC ([9]; [PMBN] 300, Table 4a): >32
MIC ([10]; [PMBN] 0, Table 4a): 32 µg/mL
MIC ([10]; [PMBN] 100, Table 4a): > 32 µg/mL
MIC ([10]; [PMBN] 200, Table 4a): > 32 µg/mL
MIC ([10]; [PMBN] 300, Table 4a): > 32 µg/mL
MIC ([11]; [PMBN] 0, Table 4a): >32
MIC ([11]; [PMBN] 100, Table 4a): 8
MIC ([11]; [PMBN] 200, Table 4a): 4
MIC ([11]; [PMBN] 300, Table 4a): 3
MIC ([12]; [PMBN] 0, Table 4a): >32
MIC ([12]; [PMBN] 100, Table 4a): 8-12
MIC ([12]; [PMBN] 300, Table 4a): 0.75
MIC ([13]; [PMBN] 0, Table 4a): >32
MIC ([13]; [PMBN] 100, Table 4a): 8
MIC ([13]; [PMBN] 200, Table 4a): 8-12
MIC ([13]; [PMBN] 300, Table 4a): 6
MIC ([14]; [PMBN] 0, Table 4a): > 32 µg/mL
MIC ([14]; [PMBN] 100, Table 4a): 12 µg/mL
MIC ([14]; [PMBN] 200, Table 4a): 3 µg/mL
MIC ([14]; [PMBN] 300, Table 4a): 1 µg/mL
MIC ([15]; [PMBN] 0, Table 4a): > 32 µg/mL
MIC ([15]; [PMBN] 100, Table 4a): > 32 µg/mL
MIC ([15]; [PMBN] 200, Table 4a): > 32 µg/mL
MIC ([15]; [PMBN] 300, Table 4a): 4 µg/mL
MIC (E. coli SAB 108 (porin−); [PMBN] 0): 4 µg/mL
MIC (E. coli SAB 108 (porin−); [PMBN] 50 μg/ml): 0.25 µg/mL
MIC (E. coli SAB 108 (porin−); [PMBN] 100 μg/ml): 0.19 µg/mL
MIC (E. coli SAB 108 (porin−); [PMBN] 150 μg/ml): 0.19 µg/mL
MIC (E. coli SAB 108 (porin−); [PMBN] 200 μg/ml): 0.19 µg/mL
MIC ([16]; [PMBN] 0, Table 4a): > 32 µg/mL
MIC ([16]; [PMBN] 100, Table 4a): 12 µg/mL
MIC ([16]; [PMBN] 200, Table 4a): 4 µg/mL
MIC ([16]; [PMBN] 300, Table 4a): 3 µg/mL
MIC (E. coli SAB 100 (porin−); [PMBN] 0): 1.5 µg/mL
MIC (E. coli SAB 100 (porin−); [PMBN] 50 μg/ml): 0.19 µg/mL
MIC (E. coli SAB 100 (porin−); [PMBN] 100 μg/ml): 0.19 µg/mL
MIC (E. coli SAB 100 (porin−); [PMBN] 150 μg/ml): 0.125 µg/mL
MIC (E. coli SAB 100 (porin−); [PMBN] 200 μg/ml): 0.125 µg/mL
MIC ([17]; [PMBN] 0, Table 4a): > 32 µg/mL
MIC ([17]; [PMBN] 100, Table 4a): > 32 µg/mL
MIC ([17]; [PMBN] 200, Table 4a): 32 µg/mL
MIC ([17]; [PMBN] 300, Table 4a): 32 µg/mL

From patent US20180155757A1, “IDENTIFICATION OF BACTERIA THAT ARE RESISTANT TO CARBAPENEMS BY MEMBRANE IMPERVIOUSNESS” (BIOMÉRIEUX, priority 2015, published 2018)
